Laboratory results from paper PMC8550792, “Evolution of kinase polypharmacology across HSP90 drug discovery” (Cell Chemical Biology, 2021).

Assays:
HSP90B1 = test system: HSP90B1; set-up: method as in ChEMBL23 (accessed: 23/08/2018); conditions: average of reported values; ref ChEMBL23 (accessed: 23/08/2018); cited from earlier work
DDR1 = DDR1 (Homo sapiens, UniProt Q08345); test: NanoBRET intracellular target engagement
ABL1 = ABL1 (Homo sapiens, UniProt P00519); test: NanoBRET intracellular target engagement
[1] = human, in vivo; cited from earlier work
ABL2 = ABL2 (Homo sapiens, UniProt P42684); test: NanoBRET intracellular target engagement
382 unique human kinases [2] = molecular target: T1, 382 unique human kinases (Homo sapiens, UniProt P10721, D816I); test: biochemical; format: biochemical; conditions: c-Kit (D816I), 10 uM
T1 construct: purchased Reaction Biology (HotSpot contract assay)

382 unique human kinases [3] = molecular target: T2, 382 unique human kinases (Homo sapiens, UniProt P08069); test: biochemical; format: biochemical; conditions: IGF1R, compound at 10 uM, duplicate values
T2 construct: purchased Reaction Biology (HotSpot contract assay)

382 unique human kinases [4] = molecular target: T3, 382 unique human kinases (Homo sapiens, UniProt O14578); test: biochemical; format: biochemical; conditions: STK21/CIT, 10 uM
T3 construct: purchased Reaction Biology (HotSpot contract assay)

382 unique human kinases [5] = molecular target: T4, 382 unique human kinases (Homo sapiens, UniProt P15056, L597V); test: biochemical; format: biochemical; conditions: BRAF (L597V), compound at 10 uM, duplicate values
T4 construct: purchased Reaction Biology (HotSpot contract assay)

382 unique human kinases [6] = molecular target: T5, 382 unique human kinases (Homo sapiens, UniProt P17948); test: biochemical; format: biochemical; conditions: FLT1/VEGFR1, [ATP] 2.5 µM, compound 10 uM
T5 construct: purchased Reaction Biology (HotSpot contract assay)

382 unique human kinases [7] = molecular target: T6, 382 unique human kinases (Homo sapiens, UniProt P04626); test: biochemical; format: biochemical; conditions: ERBB2/HER2, 10 uM
T6 construct: purchased Reaction Biology (HotSpot contract assay)

382 unique human kinases [8] = molecular target: T7, 382 unique human kinases (Homo sapiens, UniProt P19784); test: biochemical; format: biochemical; conditions: CK2a2, 10 uM
T7 construct: purchased Reaction Biology (HotSpot contract assay)

382 unique human kinases [9] = molecular target: T8, 382 unique human kinases (Homo sapiens, UniProt P04626, D769H); test: biochemical; format: biochemical; conditions: ERBB2 (D769H), 10 uM
T8 construct: purchased Reaction Biology (HotSpot contract assay)

382 unique human kinases [10] = molecular target: T9, 382 unique human kinases (Homo sapiens, UniProt P15056, V600K); test: biochemical; format: biochemical; conditions: BRAF (V600K), 10 uM
T9 construct: purchased Reaction Biology (HotSpot contract assay)

382 unique human kinases [11] = molecular target: T10, 382 unique human kinases (Homo sapiens, UniProt P00533, C797A); test: biochemical; format: biochemical; conditions: EGFR (C797A), 10 uM
T10 construct: purchased Reaction Biology (HotSpot contract assay)

382 unique human kinases [12] = molecular target: T11, 382 unique human kinases (Homo sapiens, UniProt Q9BWU1); test: biochemical; format: biochemical; conditions: CDK19/cyclin C, 10 uM
T11 construct: purchased Reaction Biology (HotSpot contract assay)

[13] = read-out: % Enzyme Activity (relative to DMSO controls)

T11 sequence (Q9BWU1 whole entry): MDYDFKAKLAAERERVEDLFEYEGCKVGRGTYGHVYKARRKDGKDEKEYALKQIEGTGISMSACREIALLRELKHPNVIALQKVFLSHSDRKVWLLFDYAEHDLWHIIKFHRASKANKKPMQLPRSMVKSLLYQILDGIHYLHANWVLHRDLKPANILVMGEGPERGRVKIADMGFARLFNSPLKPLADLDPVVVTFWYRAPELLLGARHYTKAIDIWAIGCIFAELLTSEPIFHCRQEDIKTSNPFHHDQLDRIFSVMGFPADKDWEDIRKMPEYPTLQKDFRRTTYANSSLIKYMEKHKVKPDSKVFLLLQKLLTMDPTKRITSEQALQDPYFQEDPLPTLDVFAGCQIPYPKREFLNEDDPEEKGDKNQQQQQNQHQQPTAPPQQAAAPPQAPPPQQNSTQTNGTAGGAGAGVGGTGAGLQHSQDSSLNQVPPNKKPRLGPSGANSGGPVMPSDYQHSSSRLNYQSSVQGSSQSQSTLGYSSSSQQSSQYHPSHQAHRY
DDR1, sequence (Q08345 19-913): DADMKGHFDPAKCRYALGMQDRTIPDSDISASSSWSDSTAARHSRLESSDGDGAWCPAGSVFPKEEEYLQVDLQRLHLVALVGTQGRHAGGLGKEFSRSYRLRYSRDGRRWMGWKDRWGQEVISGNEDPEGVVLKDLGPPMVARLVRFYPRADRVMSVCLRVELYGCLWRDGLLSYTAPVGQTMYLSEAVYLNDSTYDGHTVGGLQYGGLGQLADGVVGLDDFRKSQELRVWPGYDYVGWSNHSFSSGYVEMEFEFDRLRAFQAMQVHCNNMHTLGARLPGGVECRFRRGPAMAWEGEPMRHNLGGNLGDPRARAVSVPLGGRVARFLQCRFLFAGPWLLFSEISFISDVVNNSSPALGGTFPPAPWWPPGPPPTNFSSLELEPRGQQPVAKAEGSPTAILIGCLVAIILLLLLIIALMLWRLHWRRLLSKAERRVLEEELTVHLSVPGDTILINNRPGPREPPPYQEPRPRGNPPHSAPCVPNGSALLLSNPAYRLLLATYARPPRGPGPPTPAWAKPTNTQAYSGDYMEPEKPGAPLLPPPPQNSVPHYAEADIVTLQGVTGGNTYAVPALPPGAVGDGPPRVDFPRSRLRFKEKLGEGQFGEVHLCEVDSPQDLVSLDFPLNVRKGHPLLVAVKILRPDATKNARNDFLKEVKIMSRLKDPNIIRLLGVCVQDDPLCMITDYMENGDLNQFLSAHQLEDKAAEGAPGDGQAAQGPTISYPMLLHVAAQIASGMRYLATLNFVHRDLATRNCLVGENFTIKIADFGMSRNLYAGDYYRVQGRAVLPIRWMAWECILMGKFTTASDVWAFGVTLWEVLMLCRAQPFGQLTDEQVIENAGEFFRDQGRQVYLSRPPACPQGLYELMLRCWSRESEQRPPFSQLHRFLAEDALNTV
T7 sequence (P19784 whole entry): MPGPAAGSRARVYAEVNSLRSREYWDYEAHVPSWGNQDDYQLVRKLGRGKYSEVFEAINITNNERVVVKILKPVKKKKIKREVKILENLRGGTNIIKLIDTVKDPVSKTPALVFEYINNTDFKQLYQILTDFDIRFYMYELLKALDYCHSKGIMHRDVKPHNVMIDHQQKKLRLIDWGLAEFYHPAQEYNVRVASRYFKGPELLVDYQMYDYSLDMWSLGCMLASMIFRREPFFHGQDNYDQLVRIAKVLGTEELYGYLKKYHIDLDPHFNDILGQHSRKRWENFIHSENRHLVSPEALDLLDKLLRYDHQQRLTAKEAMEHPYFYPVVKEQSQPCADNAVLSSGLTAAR
T2 sequence (P08069 31-1367): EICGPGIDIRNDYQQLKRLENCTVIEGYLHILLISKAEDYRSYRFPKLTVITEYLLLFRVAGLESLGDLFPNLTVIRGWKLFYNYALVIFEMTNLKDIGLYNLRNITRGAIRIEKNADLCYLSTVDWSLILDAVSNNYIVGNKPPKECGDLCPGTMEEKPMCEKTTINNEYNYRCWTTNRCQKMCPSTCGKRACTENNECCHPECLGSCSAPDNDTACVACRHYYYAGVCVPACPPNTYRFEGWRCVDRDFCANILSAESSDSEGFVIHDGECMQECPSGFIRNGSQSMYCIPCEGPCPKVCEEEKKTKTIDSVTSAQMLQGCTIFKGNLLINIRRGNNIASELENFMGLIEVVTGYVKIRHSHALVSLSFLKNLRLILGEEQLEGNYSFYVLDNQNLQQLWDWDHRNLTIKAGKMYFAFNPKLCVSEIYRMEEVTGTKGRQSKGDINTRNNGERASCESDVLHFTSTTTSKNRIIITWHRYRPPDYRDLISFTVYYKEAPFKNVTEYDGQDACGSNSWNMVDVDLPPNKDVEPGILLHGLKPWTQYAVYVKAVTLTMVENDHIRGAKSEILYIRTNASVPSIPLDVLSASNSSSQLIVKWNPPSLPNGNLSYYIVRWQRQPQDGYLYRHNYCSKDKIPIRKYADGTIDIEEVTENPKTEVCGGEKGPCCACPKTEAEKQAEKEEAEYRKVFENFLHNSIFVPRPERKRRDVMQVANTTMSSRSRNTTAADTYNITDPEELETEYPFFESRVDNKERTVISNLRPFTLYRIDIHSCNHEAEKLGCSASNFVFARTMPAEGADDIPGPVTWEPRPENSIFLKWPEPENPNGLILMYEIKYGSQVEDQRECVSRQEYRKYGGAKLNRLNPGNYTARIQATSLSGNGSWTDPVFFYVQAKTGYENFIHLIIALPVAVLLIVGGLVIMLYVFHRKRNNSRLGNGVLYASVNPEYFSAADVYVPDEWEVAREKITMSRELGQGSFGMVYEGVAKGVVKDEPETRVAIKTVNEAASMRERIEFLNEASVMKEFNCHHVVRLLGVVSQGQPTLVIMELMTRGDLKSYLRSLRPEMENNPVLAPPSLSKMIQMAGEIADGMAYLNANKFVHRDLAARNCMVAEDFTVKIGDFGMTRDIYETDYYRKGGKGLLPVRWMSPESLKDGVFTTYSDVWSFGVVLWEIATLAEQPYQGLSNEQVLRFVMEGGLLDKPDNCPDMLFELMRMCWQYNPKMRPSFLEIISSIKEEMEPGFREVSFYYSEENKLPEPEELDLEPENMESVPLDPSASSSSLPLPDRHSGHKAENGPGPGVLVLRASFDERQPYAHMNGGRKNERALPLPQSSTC
ABL1, sequence (P00519 whole entry): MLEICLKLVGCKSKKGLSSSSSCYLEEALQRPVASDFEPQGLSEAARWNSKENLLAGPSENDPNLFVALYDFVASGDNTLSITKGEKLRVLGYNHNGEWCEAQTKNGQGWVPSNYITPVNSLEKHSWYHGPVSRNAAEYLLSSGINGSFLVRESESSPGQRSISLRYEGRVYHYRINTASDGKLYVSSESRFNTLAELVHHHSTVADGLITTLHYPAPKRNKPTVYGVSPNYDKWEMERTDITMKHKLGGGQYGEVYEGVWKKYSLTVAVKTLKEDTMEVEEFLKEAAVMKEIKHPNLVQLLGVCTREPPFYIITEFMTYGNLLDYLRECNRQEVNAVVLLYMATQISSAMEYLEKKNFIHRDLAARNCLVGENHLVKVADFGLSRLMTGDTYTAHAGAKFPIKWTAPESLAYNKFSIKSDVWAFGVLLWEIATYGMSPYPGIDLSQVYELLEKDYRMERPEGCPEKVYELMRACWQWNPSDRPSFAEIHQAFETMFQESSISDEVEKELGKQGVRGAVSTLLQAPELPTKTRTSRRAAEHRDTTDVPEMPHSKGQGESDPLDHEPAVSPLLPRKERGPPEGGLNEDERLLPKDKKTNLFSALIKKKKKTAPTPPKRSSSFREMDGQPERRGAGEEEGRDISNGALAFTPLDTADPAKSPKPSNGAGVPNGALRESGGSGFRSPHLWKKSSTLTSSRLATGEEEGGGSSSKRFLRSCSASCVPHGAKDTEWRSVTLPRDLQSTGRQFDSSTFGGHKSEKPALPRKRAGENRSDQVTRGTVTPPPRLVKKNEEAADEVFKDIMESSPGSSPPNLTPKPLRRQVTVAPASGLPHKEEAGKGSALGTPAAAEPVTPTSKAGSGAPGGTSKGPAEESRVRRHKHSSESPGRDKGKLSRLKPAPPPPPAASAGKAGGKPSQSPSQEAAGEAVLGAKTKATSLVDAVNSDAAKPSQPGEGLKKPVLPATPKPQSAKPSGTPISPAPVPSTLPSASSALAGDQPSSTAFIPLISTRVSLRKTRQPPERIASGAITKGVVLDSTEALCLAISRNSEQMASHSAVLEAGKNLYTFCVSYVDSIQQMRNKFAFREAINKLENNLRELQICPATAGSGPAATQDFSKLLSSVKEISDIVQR
T4 sequence (P15056 whole entry L597V): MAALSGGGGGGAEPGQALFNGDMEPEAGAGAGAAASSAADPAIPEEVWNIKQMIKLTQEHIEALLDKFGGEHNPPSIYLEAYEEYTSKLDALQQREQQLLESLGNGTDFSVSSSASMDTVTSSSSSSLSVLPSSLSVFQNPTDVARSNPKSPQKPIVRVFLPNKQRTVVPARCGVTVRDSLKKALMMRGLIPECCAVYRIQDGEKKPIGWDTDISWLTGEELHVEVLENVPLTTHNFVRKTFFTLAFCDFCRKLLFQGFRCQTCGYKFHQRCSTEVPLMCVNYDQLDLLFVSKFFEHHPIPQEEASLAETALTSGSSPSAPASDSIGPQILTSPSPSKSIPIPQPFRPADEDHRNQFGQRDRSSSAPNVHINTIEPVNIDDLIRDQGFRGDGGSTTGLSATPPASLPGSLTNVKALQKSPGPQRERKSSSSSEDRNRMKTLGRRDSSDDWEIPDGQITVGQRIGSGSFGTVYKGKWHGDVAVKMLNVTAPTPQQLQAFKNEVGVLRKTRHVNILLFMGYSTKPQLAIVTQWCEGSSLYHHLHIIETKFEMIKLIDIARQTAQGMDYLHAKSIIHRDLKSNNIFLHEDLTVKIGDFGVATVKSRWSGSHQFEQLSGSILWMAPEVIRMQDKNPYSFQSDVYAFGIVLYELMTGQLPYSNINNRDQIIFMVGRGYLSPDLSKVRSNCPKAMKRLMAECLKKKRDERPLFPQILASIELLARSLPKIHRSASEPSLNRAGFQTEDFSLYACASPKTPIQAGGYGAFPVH
T9 sequence (P15056 whole entry V600K): as the sequence (P15056 whole entry L597V) above, with V597L, V600K counted along it

For `CC(C)c1cc(-c2n[nH]c(=O)n2-c2ccc3c(ccn3C)c2)c(O)cc1O` [Ganetespib], the “pActivity, HSP90B1” value (HSP90B1) is given as 8, the EC50 (DDR1) is given as 75.5 µM and the remaining activity at 100 µM (DDR1; HEK293, read-out: %Normalized Bret Response, DDR1 NanoBRET, HEK293, Drug Conc. 0.0001 M) is given as 37.5%. For the same molecule, the EC50 (ABL1) was 82.9 µM, the remaining activity at 100 µM (ABL1; HEK293, read-out: %Normalized Bret Response, ABL1 NanoBRET, HEK293, Drug Conc. 0.0001 M) was 41.3% and the “Cmax,total” value [1] was 6 to 12 µM. It also gave an EC50 (ABL2) of 21.1 µM and a remaining activity at 100 µM (ABL2; HEK293, read-out: %Normalized Bret Response, ABL2 NanoBRET, HEK293, Drug Conc. 0.0001 M) of 22.6%.

In the case of `CCNC(=O)c1noc(-c2cc(C(C)C)c(O)cc2O)c1-c1ccc(CN2CCOCC2)cc1` [Luminespib (AUY-922)], the “% Enzyme Activity (relative to DMSO controls)” value (382 unique human kinases [2]) is reported as 72.16%, the remaining activity at 10 µM (382 unique human kinases [2]; [13]) is reported as 73.3% and the “% Enzyme Activity (relative to DMSO controls)” value (382 unique human kinases [3]) is reported as 104.49%. For the same molecule, the remaining activity at 10 µM (382 unique human kinases [3]; [13]) was 106%, the “% Enzyme Activity (relative to DMSO controls)” value (382 unique human kinases [4]) was 76.27% and the remaining activity at 10 µM (382 unique human kinases [4]; [13]) was 78.4%. The “% Enzyme Activity (relative to DMSO controls)” value (382 unique human kinases [5]) was 104.65% and the remaining activity at 10 µM (382 unique human kinases [5]; [13]) was 107%.

For `CCNC(=O)c1noc(-c2cc(C(C)C)c(O)cc2O)c1-c1ccc(CN2CCOCC2)cc1` [Luminespib], the “% Enzyme Activity (relative to DMSO controls)” value (382 unique human kinases [6]) was 90.88%, the remaining activity at 10 µM (382 unique human kinases [6]; [13]) was 91.3% and the “% Enzyme Activity (relative to DMSO controls)” value (382 unique human kinases [7]) was 97.41%. The remaining activity at 10 µM (382 unique human kinases [7]; [13]) was 98.2%, the “% Enzyme Activity (relative to DMSO controls)” value (382 unique human kinases [8]) was 108.66% and the remaining activity at 10 µM (382 unique human kinases [8]; [13]) was 111%. The “% Enzyme Activity (relative to DMSO controls)” value (382 unique human kinases [9]) was 99.65%, the remaining activity at 10 µM (382 unique human kinases [9]; [13]) was 102% and the “% Enzyme Activity (relative to DMSO controls)” value (382 unique human kinases [10]) was 98.47%. For the same molecule, the remaining activity at 10 µM (382 unique human kinases [10]; [13]) was 99.2%, the “% Enzyme Activity (relative to DMSO controls)” value (382 unique human kinases [11]) was 99.37% and the remaining activity at 10 µM (382 unique human kinases [11]; [13]) was 102%. For the same molecule, the “% Enzyme Activity (relative to DMSO controls)” value (382 unique human kinases [12]) was 95.24% and the remaining activity at 10 µM (382 unique human kinases [12]; [13]) was 96.2%.
